# Measurements taken from patent US20260356869A1, “TRANSITION METAL COMPLEXES FOR MRI APPLICATIONS AND METHODS OF USE” (Yale University, priority 2022, published 2026).
# Like-named read-outs stand apart in the source and are kept apart here.
# Legend:
# [1] = 23Na-NMR sodium sensing (shiftability and broadening); assay type: physicochemical; details: 150 mM NaCl; for Shiftability (Sc): negative = downfield, positive = upfield from unshifted sodium signal
# Excerpt: (§1) The synthesized complexes are characterized for water proton relaxivities with different concentrations of complexes, as well as their proton sensing (with BIRDS and CEST) and sodium sensing (with ^23Na-MRSI) properties on a Bruker AVANCE III HD 500 vertical-bore spectrometer (Bruker, Billerica, MA, USA) interfaced with Bruker TopSpin v3.2 software.
# Sodium-23 (^23Na), which has 100% natural abundance, is also visible by magnetic resonance (I=3/2) and provides the second-strongest signal among biological ions after proton. […] Sodium (Na^+) concentration is normally low intracellularly (~10 mM) and high in blood and extracellular spaces (~150 mM), producing a strong transmembrane Nat gradient (ΔNa^+mem≈140 mM) and a weak transendothelial Na^+ gradient (ΔNa^+end≈0 mM). Distributions of sodium ion (Na^+) across biological membranes are tightly regulated, and thus variations of Nat across compartments often imply pathological states.
# In vitro experiments are performed using concentric NMR tubes (spherical and cylindrical; Wilmad-LabGlass, Vineland, NJ, USA). One compartment (inner) contained 150 mM NaCl and the other (outer) contained the same but with varying amounts of transition metal complexes and 10% v/v ^2H2O to lock the spectrometer frequency using the ^2H2O signal. Each solution is pH-adjusted using HCl or KOH to give five different pH values. ^23Na-NMR spectra are collected on the same Bruker system as for ^1H NMR. […] Spectra are analyzed applying 10 Hz line broadening and manual zeroth- and first-order phasing. The chemical shift and line width of the shifted peak are measured using the “peakw” function on TopSpin.
# [2] = BIRDS characterization: pH and temperature sensitivity of non-exchangeable (and -NH) proton chemical shifts by 1H NMR; assay type: physicochemical; details: for T sensitivity, -NH proton: -NH proton (exchangeable), 298 K to 318 K
# Experimental: as §1
# The chemical shifts of proton resonances are measured relative to the water resonance (4.7 ppm). Temperature and pH sensitive non-exchangeable proton resonances in each complex are chosen for BIRDS detection. The temperature and pH dependences of proton chemical shifts are fitted to second-order polynomial equations:
# δ=a+b pH+cT+dpH^2+eT^2+f pHT Eq. 1
# Where, the coefficients a-f are obtained from the fit. The relaxation times (T1 and T2) of these resonances are measured at 35 °C using typical inversion-recovery and spin-echo methods, respectively.
# [3] = reported value, cited from earlier work; for Shiftability (Sc): negative = downfield, positive = upfield from unshifted sodium signal
# [4] = literature value, cited from earlier work
# [5] = 10 mM, pH 6.2-8.0, 298 K to 318 K, 11.7 T
# [6] = proton B, 10 mM, pH 6.2-8.0, 298 K to 318 K, 11.7 T
# [7] = proton A (@56), comparator thulium complex
# [8] = proton B (@23), comparator thulium complex
# [9] = proton C (@-20), comparator thulium complex
structure (smiles),measurement,setting,value
O=P(O)(O)CN1CCN(CP(=O)(O)O)CCN(CP(=O)(O)O)CCN(CP(=O)(O)O)CC1.[Fe+2] [FeDOTP^6-],Broadening (βc),[1],0.023 ppm/mM
same,Shiftability (Sc),[1],+0.688 ppm/mM
same,"T sensitivity, non-exchangeable proton A",[2]; [5],0.345 ppm/° C.
same,"T sensitivity, non-exchangeable proton B",[2]; [6],0.130 ppm/° C.
same,"T sensitivity, non-exchangeable proton C",[2]; [5],0.045 ppm/° C.
O=P(O)(O)CN1CCN(CP(=O)(O)O)CCN(CP(=O)(O)O)CCN(CP(=O)(O)O)CC1.[Co+2] [CODOTP^6-],Broadening (βc),[1],0.016 ppm/mM
same,Shiftability (Sc),[1],-0.207 ppm/mM
same,"T sensitivity, non-exchangeable proton A",[2]; [5],0.434 ppm/° C.
same,"pH sensitivity, non-exchangeable proton A",[2]; [5],6.0 ppm/pH unit
same,"T sensitivity, non-exchangeable proton B",[2]; [6],0.234 ppm/° C.
same,"pH sensitivity, non-exchangeable proton B",[2]; [6],1.42 ppm/pH unit
same,"T sensitivity, non-exchangeable proton C",[2]; [5],0.186 ppm/° C.
O=C(CN1CCN(CC(=O)NCP(=O)(O)O)CCN(CC(=O)NCP(=O)(O)O)CCN(CC(=O)NCP(=O)(O)O)CC1)NCP(=O)(O)O.[Co+2] [CoDOTA-4AMP^6-],Broadening (βc),[1],0.022 ppm/mM
same,Shiftability (Sc),[1],-0.172 ppm/mM
same,"T sensitivity, -NH proton",[2]; 11.7 T,0.161 ppm/° C.
same,"T sensitivity, non-exchangeable proton A",[2]; [5],0.576 ppm/° C.
O=P(O)(O)CN1CCN(CP(=O)(O)O)CCN(CP(=O)(O)O)CC1.[Tm+3] [TmNOTP^3-],Broadening (βc),[3],0.018 ppm/mM
same,Shiftability (Sc),[3],-0.568 ppm/mM
same,"T sensitivity, non-exchangeable proton A (@56)",[2]; [7],0.351 ppm/° C.
same,"pH sensitivity, non-exchangeable proton A (@56)",[2]; [7],-2.58 ppm/pH unit
same,"T sensitivity, non-exchangeable proton B (@23)",[2]; [8],0.140 ppm/° C.
same,"pH sensitivity, non-exchangeable proton B (@23)",[2]; [8],-0.56 ppm/pH unit
same,"T sensitivity, non-exchangeable proton C (@-20)",[2]; [9],-0.250 ppm/° C.
same,"pH sensitivity, non-exchangeable proton C (@-20)",[2]; [9],1.88 ppm/pH unit
O=P(O)(O)CN1CCN(CP(=O)(O)O)CCN(CP(=O)(O)O)CCN(CP(=O)(O)O)CC1.[Tm+3] [TmDOTP^5-],"T sensitivity, non-exchangeable proton H2",[4],-0.6 ppm/° C.
same,"pH sensitivity, non-exchangeable proton H2",[4],4.2 ppm/pH unit
same,"T sensitivity, non-exchangeable proton H3",[4],-0.5 ppm/° C.
same,"pH sensitivity, non-exchangeable proton H3",[4],3.6 ppm/pH unit
same,"T sensitivity, non-exchangeable proton H6",[4],1.1 ppm/° C.
same,"pH sensitivity, non-exchangeable proton H6",[4],-3.9 ppm/pH unit
same,Broadening (βc),[3],0.042 ppm/mM
same,Shiftability (Sc),[3],-2.03 ppm/mM
O=C(CN1CCN(CC(=O)NCP(=O)(O)O)CCN(CC(=O)NCP(=O)(O)O)CCN(CC(=O)NCP(=O)(O)O)CC1)NCP(=O)(O)O.[Tm+3] [TmDOTA-4AMP^5-],"T sensitivity, non-exchangeable proton H1",[4]; proton H1,0.54 ppm/° C.
same,"pH sensitivity, non-exchangeable proton H1",[4]; proton H1,1.8 ppm/pH unit
same,"T sensitivity, non-exchangeable proton H2",[4],-0.24 ppm/° C.
same,"pH sensitivity, non-exchangeable proton H2",[4],-0.63 ppm/pH unit
same,"T sensitivity, non-exchangeable proton H3",[4],-0.188 ppm/° C.
same,"pH sensitivity, non-exchangeable proton H3",[4],-0.25 ppm/pH unit
same,"T sensitivity, non-exchangeable proton H4",[4]; proton H4,-1.49 ppm/° C.
same,"pH sensitivity, non-exchangeable proton H4",[4]; proton H4,-3.9 ppm/pH unit
same,"T sensitivity, non-exchangeable proton H6",[4],0.45 ppm/° C.
same,"pH sensitivity, non-exchangeable proton H6",[4],1.2 ppm/pH unit
same,"T sensitivity, non-exchangeable proton H8",[4]; proton H8,0.170 ppm/° C.
same,"pH sensitivity, non-exchangeable proton H8",[4]; proton H8,-4.0 ppm/pH unit
O=P(O)(O)CN1CCN(CP(=O)(O)O)CCN(CP(=O)(O)O)CCN(CP(=O)(O)O)CC1.[Gd+3] [GdDOTP^5-],Broadening (βc),[3],0.036 ppm/mM
same,Shiftability (Sc),[3],-0.040 ppm/mM
O=P(O)(O)CN1CCN(CP(=O)(O)O)CCN(CP(=O)(O)O)CC1.[Fe+2] [FeNOTP^4-],Broadening (βc),[1],0.015 ppm/mM
same,Shiftability (Sc),[1],+0.318 ppm/mM
same,"T sensitivity, non-exchangeable proton A",[2]; [5],0.240 ppm/° C.
same,"T sensitivity, non-exchangeable proton B",[2]; [6],0.149 ppm/° C.
O=P(O)(O)CN1CCN(CP(=O)(O)O)CCN(CP(=O)(O)O)CC1.[Gd+3] [GdNOTP^3-],Broadening (βc),[3],0.0117 ppm/mM
same,Shiftability (Sc),[3],-0.0435 ppm/mM
O=C(CN1CCN(CC(=O)NCP(=O)(O)O)CCN(CC(=O)NCP(=O)(O)O)CCN(CC(=O)NCP(=O)(O)O)CC1)NCP(=O)(O)O.[Fe+2] [FeDOTA-4AMP^6-],Broadening (βc),[1],0.020 ppm/mM
same,Shiftability (Sc),[1],-0.477 ppm/mM
same,"T sensitivity, -NH proton",[2]; 11.7 T,0.158 ppm/° C.
same,"T sensitivity, non-exchangeable proton A",[2]; [5],0.413 ppm/° C.
same,"T sensitivity, non-exchangeable proton E","[2]; proton E, 10 mM, pH 6.2-8.0, 298 K to 318 K, 11.7 T",-0.306 ppm/° C.
O=P(O)(O)CN1CCN(CP(=O)(O)O)CCN(CP(=O)(O)O)CC1.[Co+2] [CONOTP^4-],Broadening (βc),[1],0.013 ppm/mM
same,Shiftability (Sc),[1],+0.140 ppm/mM
same,"T sensitivity, non-exchangeable proton A",[2]; [5],0.948 ppm/° C.
same,"pH sensitivity, non-exchangeable proton A",[2]; [5],6.20 ppm/pH unit
